Reference: ChEMBL document CHEMBL5505951, “Insight into the design of FGFR4 selective inhibitors in cancer therapy: Prospects and challenges” (Eur J Med Chem, 2024)
One block for each molecule: values may come before it.

What was measured:
[1] = target: T1, Fibroblast growth factor receptor 1 (Homo sapiens, UniProt P11362); experiment: Inhibition of N-terminal 6xHis-tagged human FGFR1 (456 to 765 residues) transfected in Escherichia coli Rossetta cells incubated for 30 mins by ADP-Glo assay
[2] = target: T2, Fibroblast growth factor receptor 2 (Homo sapiens, UniProt P21802); experiment: Inhibition of N-terminal 6xHis-tagged human FGFR2 (453 to 770 residues) transfected in Escherichia coli Rossetta cells incubated for 30 mins by ADP-Glo assay
T2 sequence (P21802 whole entry, the tested form may be a part): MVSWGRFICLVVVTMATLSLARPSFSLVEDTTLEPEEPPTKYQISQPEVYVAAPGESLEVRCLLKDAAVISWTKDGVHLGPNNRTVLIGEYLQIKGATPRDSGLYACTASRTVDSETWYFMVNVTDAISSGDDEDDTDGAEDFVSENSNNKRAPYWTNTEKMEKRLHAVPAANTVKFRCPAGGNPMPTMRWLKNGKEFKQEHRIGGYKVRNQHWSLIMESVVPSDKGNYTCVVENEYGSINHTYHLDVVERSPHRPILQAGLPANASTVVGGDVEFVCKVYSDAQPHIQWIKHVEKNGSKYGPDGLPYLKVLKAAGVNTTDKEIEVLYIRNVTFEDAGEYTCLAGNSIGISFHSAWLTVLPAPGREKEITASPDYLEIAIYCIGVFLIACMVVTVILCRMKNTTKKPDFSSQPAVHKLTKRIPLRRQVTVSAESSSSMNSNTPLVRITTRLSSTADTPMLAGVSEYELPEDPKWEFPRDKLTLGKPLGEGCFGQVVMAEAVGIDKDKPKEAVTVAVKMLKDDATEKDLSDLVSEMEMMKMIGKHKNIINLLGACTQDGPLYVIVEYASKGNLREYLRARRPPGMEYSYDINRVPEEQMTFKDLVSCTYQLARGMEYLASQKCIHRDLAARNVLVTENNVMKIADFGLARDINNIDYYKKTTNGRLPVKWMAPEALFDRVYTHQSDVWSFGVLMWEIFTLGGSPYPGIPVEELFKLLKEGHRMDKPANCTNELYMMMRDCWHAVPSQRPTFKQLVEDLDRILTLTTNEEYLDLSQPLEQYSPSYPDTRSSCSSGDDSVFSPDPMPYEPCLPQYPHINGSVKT

[3] = target: T3, Fibroblast growth factor receptor 3 (Homo sapiens, UniProt P22607); experiment: Inhibition of N-terminal 6xHis-tagged human FGFR3 (450 to 758 residues) transfected in Escherichia coli Rossetta cells incubated for 30 mins by ADP-Glo assay
T3 sequence (P22607 whole entry, the tested form may be a part): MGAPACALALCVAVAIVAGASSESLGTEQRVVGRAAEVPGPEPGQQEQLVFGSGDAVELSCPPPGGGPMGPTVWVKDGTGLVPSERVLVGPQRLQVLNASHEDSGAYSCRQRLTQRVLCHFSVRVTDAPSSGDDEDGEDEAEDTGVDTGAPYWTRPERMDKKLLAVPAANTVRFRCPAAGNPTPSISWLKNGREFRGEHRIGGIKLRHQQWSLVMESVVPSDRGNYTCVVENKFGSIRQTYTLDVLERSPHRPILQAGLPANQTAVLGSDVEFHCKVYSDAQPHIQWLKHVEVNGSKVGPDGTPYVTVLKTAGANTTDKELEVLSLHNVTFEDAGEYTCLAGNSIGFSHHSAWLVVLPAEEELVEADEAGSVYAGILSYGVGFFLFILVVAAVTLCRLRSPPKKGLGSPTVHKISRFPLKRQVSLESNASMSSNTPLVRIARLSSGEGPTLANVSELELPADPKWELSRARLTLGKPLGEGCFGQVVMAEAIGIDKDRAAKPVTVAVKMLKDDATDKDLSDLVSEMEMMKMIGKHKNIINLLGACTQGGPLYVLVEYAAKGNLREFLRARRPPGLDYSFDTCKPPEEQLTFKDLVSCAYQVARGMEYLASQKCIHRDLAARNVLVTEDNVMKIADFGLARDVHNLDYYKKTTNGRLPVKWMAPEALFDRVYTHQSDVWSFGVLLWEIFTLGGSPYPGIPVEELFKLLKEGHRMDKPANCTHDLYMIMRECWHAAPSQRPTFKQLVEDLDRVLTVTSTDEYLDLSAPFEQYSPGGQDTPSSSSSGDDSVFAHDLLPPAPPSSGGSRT

[4] = target: Fibroblast growth factor receptor 4 (Homo sapiens, UniProt P22455, C477A/C552A); experiment: Inhibition of FGFR4 C552A/C477A double mutant (unknown origin)
Fibroblast growth factor receptor 4, sequence (P22455 22-802 C477A/C552A limits assumed): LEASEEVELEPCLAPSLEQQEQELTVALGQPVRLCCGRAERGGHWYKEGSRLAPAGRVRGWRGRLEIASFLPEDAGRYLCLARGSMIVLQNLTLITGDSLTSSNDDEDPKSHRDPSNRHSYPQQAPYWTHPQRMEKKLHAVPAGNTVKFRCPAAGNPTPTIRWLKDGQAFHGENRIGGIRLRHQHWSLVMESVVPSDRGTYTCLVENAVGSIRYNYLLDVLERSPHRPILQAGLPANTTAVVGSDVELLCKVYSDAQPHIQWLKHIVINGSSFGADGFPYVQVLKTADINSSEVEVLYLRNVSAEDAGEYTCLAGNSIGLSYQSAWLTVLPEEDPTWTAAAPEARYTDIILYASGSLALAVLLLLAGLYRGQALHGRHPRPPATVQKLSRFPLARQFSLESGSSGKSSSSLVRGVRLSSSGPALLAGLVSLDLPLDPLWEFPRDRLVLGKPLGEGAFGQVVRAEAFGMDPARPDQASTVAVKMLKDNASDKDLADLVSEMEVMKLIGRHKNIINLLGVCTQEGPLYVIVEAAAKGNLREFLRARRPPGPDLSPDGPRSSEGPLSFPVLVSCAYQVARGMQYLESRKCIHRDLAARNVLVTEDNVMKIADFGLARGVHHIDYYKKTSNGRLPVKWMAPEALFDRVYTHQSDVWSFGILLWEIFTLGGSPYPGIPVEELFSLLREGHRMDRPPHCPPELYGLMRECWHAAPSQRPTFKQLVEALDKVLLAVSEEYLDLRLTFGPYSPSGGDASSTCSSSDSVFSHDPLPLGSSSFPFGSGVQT

[5] = target: T1, Fibroblast growth factor receptor 1; experiment: Inhibition of FGFR1 (unknown origin) incubated for 30 mins by ADP-Glo assay
[6] = target: T3, Fibroblast growth factor receptor 3; experiment: Inhibition of FGFR3 (unknown origin) incubated for 30 mins by ADP-Glo assay
Huh-7 [7] = experiment: Antiproliferative activity against human Huh-7 cells expressing FGFR2 assessed as reduction in cell viability incubated for 48 hrs by MTT assay; type: functional, cell-based; conditions: Huh-7, 48 h
Huh-7 [8] = experiment: Antiproliferative activity against human Huh-7 cells expressing FGFR3 assessed as reduction in cell viability incubated for 48 hrs by MTT assay; type: functional, cell-based; conditions: Huh-7, 48 h
Hep 3B2 [9] = experiment: Antiproliferative activity against human Hep3B cells expressing FGFR2 assessed as reduction in cell viability incubated for 48 hrs by MTT assay; type: functional, cell-based
Hep 3B2 [10] = experiment: Antiproliferative activity against human Hep3B cells expressing FGFR3 assessed as reduction in cell viability incubated for 48 hrs by MTT assay; type: functional, cell-based
Huh-7 [11] = experiment: Antiproliferative activity against FGF19/FGFR4 dependent human Huh-7 cells assessed as reduction in cell viability; type: functional, cell-based
Hep 3B2 [12] = experiment: Antiproliferative activity against FGF19/FGFR4 dependent human Hep3B cells assessed as reduction in cell viability; type: functional, cell-based
[13] = target: T1, Fibroblast growth factor receptor 1; experiment: Inhibition of FGFR1 (unknown origin)
[14] = target: T2, Fibroblast growth factor receptor 2; experiment: Inhibition of FGFR2 (unknown origin)
[15] = target: T3, Fibroblast growth factor receptor 3; experiment: Inhibition of FGFR3 (unknown origin)
[16] = Half life in human; type: ADME
Hep 3B2 [17] = experiment: Antitumor activity against human Hep3B cells xenografted in BALB/c nude mouse assessed as tumor growth inhibition at 100 mg/kg, po relative to control; type: functional; conditions: read-out: TGI

T1 sequence (P11362 whole entry, the tested form may be a part): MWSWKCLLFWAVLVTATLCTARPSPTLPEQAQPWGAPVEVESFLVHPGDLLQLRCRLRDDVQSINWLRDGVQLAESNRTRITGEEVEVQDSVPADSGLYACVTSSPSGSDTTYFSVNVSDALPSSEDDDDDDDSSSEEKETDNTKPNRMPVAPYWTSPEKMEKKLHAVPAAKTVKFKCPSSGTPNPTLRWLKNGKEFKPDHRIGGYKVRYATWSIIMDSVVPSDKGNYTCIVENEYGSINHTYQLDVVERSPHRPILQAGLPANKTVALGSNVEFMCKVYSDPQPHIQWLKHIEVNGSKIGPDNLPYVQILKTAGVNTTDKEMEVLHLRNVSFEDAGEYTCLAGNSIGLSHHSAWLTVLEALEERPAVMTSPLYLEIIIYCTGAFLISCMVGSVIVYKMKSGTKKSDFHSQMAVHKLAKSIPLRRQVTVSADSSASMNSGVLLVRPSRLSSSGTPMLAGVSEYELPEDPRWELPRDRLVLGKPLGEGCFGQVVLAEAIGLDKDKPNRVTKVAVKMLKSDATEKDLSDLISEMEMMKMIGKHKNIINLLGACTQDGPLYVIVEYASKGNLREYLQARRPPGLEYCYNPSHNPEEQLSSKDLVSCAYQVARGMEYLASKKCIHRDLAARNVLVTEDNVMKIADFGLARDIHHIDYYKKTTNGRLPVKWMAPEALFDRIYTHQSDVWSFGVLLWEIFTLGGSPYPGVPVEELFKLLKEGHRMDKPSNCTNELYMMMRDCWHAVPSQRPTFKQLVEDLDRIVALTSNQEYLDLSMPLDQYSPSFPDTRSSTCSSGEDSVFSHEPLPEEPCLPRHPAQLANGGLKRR

IC50 [1]: 2580 nM
IC50 [2]: 2410 nM
IC50 [3]: 977 nM
IC50 [4]: 1530 nM
Compound: C=CC(=O)Nc1ccccc1Nc1ncc2c(n1)N(CCCN1CCN(C(=O)C=C)CC1)C(=O)N(c1c(Cl)c(OC)cc(OC)c1Cl)C2

IC50 [5]: > 50000 nM
IC50 [6]: > 30000 nM
IC50 (Huh-7 [7]): 7100 nM
IC50 (Huh-7 [8]): 12600 nM
Compound: C=CC(=O)Nc1cc(F)cc(Cl)c1Nc1nc(C)c(OCc2c(F)c(OC)cc(OC)c2F)c(C)n1
IC50 (Hep 3B2 [9]): 900 nM
IC50 (Hep 3B2 [10]): 4500 nM

IC50 (Huh-7 [11]): 9200 nM
Compound: COc1cc(OC)c(Cl)c(-c2ccc3nc(NCCCNC(=O)/C(C#N)=C/C4CC4)ncc3c2)c1Cl
IC50 (Hep 3B2 [12]): 9000 nM

IC50 [13]: 591 nM
IC50 [14]: 493 nM
IC50 [15]: 150 nM
half-life [16]: ~17 h
Compound: C=CC(=O)N[C@H]1CCOC[C@H]1Nc1ncc2cc(-c3c(Cl)c(OC)cc(OC)c3Cl)ccc2n1 [FISOGATINIB]

Compound: C=CC(=O)Nc1cc(N2CCN(CC)CC2)ccc1Nc1cc(N(C)C(=O)Nc2c(Cl)c(OC)cc(OC)c2Cl)ncn1 [H3B-6527]
inhibition in vivo at 100 mg/kg (Hep 3B2 [17]): 109%
